The source made the active and inactive calls.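 How the source made its calls: active means fitted half-maximal concentration for changing reporter fluorescence at or below a set limit; inactive means the rest.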
Target: Citrate synthase, peroxisomal (Saccharomyces cerevisiae (strain ATCC 204508 / S288c)) (UniProt P08679)
Assay: yeast TOR pathway CIT2-GFP reporter potency – flow cytometry, MLPCN hits, dose response (AID 2744)
Conditions: S. cerevisiae CIT2-GFP strain, 3 h, at 33 µM (top of the series)

Sequence of Citrate synthase, peroxisomal (Saccharomyces cerevisiae (strain ATCC 204508 / S288c)) (P08679 whole entry, looked up): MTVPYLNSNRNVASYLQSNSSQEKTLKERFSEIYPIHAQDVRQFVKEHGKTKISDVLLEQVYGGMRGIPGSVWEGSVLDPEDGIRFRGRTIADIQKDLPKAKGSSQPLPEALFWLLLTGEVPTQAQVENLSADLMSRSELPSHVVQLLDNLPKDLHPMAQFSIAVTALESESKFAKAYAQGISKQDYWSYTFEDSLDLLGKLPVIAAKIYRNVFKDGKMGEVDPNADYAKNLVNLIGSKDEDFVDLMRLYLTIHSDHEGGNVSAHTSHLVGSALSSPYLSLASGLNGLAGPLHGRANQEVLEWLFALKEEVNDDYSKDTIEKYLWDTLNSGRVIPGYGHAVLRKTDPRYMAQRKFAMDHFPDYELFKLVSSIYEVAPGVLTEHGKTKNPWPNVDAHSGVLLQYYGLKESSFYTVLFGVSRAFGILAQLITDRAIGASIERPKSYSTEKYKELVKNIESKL

Row | SMILES | GFP fluorescence, higher = induction
1 | O=C(OCC(=O)N1CCN(C(=O)c2ccco2)CC1)c1cc(-c2ccccc2)nc2ccccc12 | inactive
2 | Oc1ccc(Br)cc1/C=N/Nc1ccccn1 | inactive
3 | COc1cc(/C=C2\CC/C(=C\c3cc(OC)c(O)c(OC)c3)C2=O)cc(OC)c1O | inactive
4 | O=C(/C=C/c1ccccc1)c1cc(Br)ccc(=O)c1O | inactive
5 | Cc1ccc(-c2nc(N)c3c(-c4ccc(C)cc4)nn(C(C)(C)C)c3n2)cc1 | inactive
6 | Oc1ccc(N=Nc2ccccc2)o1 | inactive
7 | Cc1cc(C)nc(S/C=C/C(=O)c2ccccc2)n1 | inactive
8 | COc1ccc(NC(=O)/C(Cl)=C(/Cl)S(=O)Cc2ccccc2)cn1 (centres undefined) | inactive
9 | COc1ccc(NC2=C(Cl)C(=O)N(CCc3ccccc3)C2=O)c(OC)c1 | inactive
10 | CSC1=NS(=O)(=O)c2c(C)nn(C)c2S1 | inactive
11 | CC1=CC(=O)C(C(C)C)=C/C1=N/OS(=O)(=O)c1ccccc1 | inactive
12 | Oc1ccc2ccccc2c1N=Nc1nccs1 | inactive
13 | CN(c1ccccc1)c1ccc(/C=c2\s/c(=C(/C#N)C(=O)C(C)(C)C)n(Cc3ccco3)c2=O)cc1 | inactive
14 | Cc1ccc(N=c2ssnc2Cl)cc1 | inactive
15 | O=C(/C=C/c1ccnc2ccccc12)c1cccs1 | inactive
16 | COc1cccc(/C=C/C(=O)c2c(O)cc(C)oc2=O)c1O | inactive
17 | CC(C)(C)c1cc(C(c2cccnc2)N2CCN(CCO)CC2)cc(C(C)(C)C)c1O (centres undefined) | inactive

Row | SMILES | GFP fluorescence, higher = induction
18 | Oc1c(C(Nc2nc3ccccc3s2)c2ccco2)ccc2cccnc12 (centres undefined) | inactive
19 | Cc1nn(C)c(C)c1N1C(=O)c2cccc3c(Br)ccc(c23)C1=O | inactive
20 | Cc1cccc(N=C2NC(=O)/C(=C/C=C/c3ccco3)S2)c1C | inactive
21 | CCOC(=O)c1ccc(N=Cc2nc(-c3ccccc3)oc2OC(C)=O)cc1 | inactive
22 | Oc1c(CN2CCCCC2)cc(Br)c2cccnc12 | inactive
23 | CCC(=O)Oc1oc(-c2ccccc2)nc1C=Nc1ccc(C)cc1 | inactive
24 | O=C(O)C1Sc2[nH]c(=O)sc2C2c3cc(Br)ccc3OC(=O)C12 (centres undefined) | inactive
25 | Cc1cccc(C(=O)NNC(=S)NC(=O)c2ccccc2)c1 | inactive
26 | C[C@@H]1C[C@@H]([C@H](O)CC2CC(=O)NC(=O)C2)C(=O)[C@@H](C)C1 | inactive
27 | O=C(O)c1ccn2c(C(=O)c3ccccc3)c(-c3ccccc3)cc2c1 | inactive
28 | O=C1C(Cl)=C(Nc2ccccc2O)C(=O)N1c1ccccc1 | inactive
29 | Oc1c(Br)cc(Br)cc1C=Nc1ccc2c(c1)OCO2 | inactive
30 | COc1ccc(N=Cc2nc(-c3ccccc3)oc2OC(C)=O)cc1 | inactive
31 | CCN1/C(=C/c2ccc3cc(C)ccc3[n+]2CC)Sc2ccc3sccc3c21 | inactive
32 | c1ccc(-c2csc(Nc3cccnc3)n2)nc1 | inactive
33 | CC(Oc1ccc(Br)cc1)C(=O)Nc1nc(-c2ccccn2)cs1 (centres undefined) | inactive
34 | Cc1cc(C)c(OCC(=O)Nc2nc(-c3ccccn3)cs2)c(C)c1 | inactive

Reference: PubChem BioAssay AID2744 (NMMLSC, 2010)
